Laboratory results reported in US4160829A, “Antibacterial 1,2,4-oxadiazolylacetamido cephalosporins” (Gist-Brocades N.V., priority 1972, dated 1979).

Tests used:
Bac.Subt.ATCC 6633 = assay: agar serial dilution test; assay type: cell-based, Bacillus subtilis; settings: Bacillus subtilis, ATCC6633, 24 h, agar serial dilution, 24 hours, 37° C.; read-out: minimal inhibitory concentration (MIC)
Staph.aureus A 321 = assay: agar serial dilution test; assay type: cell-based, Staphylococcus aureus; settings: Staphylococcus aureus, A321, 24 h, agar serial dilution, 24 hours, 37° C.; read-out: minimal inhibitory concentration (MIC)
Staph.aureus A 2000 [1] = assay: agar serial dilution test; assay type: cell-based, Staphylococcus aureus; settings: Staphylococcus aureus, A2000, 24 h, agar serial dilution, 24 hours, 37° C.; read-out: minimal inhibitory concentration (MIC)
Staph.aureus A 2001 = assay: agar serial dilution test; assay type: cell-based, Staphylococcus aureus; settings: Staphylococcus aureus, A2001, 24 h, agar serial dilution, 24 hours, 37° C.; read-out: minimal inhibitory concentration (MIC)
Past.multo. A 723 = assay: agar serial dilution test; assay type: cell-based, Pasteurella multocida; settings: Pasteurella multocida; agar serial dilution, 24 hours, 37° C.; read-out: minimal inhibitory concentration (MIC)
Salm.dubl. P 43 = assay: agar serial dilution test; assay type: cell-based, Salmonella dublin; settings: Salmonella enterica; agar serial dilution, 24 hours, 37° C.; read-out: minimal inhibitory concentration (MIC)
Pseud.aerug. H 10 = assay: agar serial dilution test; assay type: cell-based; settings: agar serial dilution, 24 hours, 37° C.; read-out: minimal inhibitory concentration (MIC)
Pseud.aerug. 2396 = assay: agar serial dilution test; assay type: cell-based; settings: agar serial dilution, 24 hours, 37° C.; read-out: minimal inhibitory concentration (MIC)
Prot.rettg. A 821 = assay: agar serial dilution test; assay type: cell-based, Proteus rettgeri; settings: Providencia rettgeri, 24 h, agar serial dilution, 24 hours, 37° C.; read-out: minimal inhibitory concentration (MIC)
Prot.mirab. H 3 = assay: agar serial dilution test; assay type: cell-based, Proteus mirabilis; settings: Proteus mirabilis; agar serial dilution, 24 hours, 37° C.; read-out: minimal inhibitory concentration (MIC)
Prot.mirab. L 93 = assay: agar serial dilution test; assay type: cell-based, Proteus mirabilis; settings: Proteus mirabilis; agar serial dilution, 24 hours, 37° C.; read-out: minimal inhibitory concentration (MIC)
Prot.morg. 2241 = assay: agar serial dilution test; assay type: cell-based; settings: 24 h, agar serial dilution, 24 hours, 37° C.; read-out: minimal inhibitory concentration (MIC)
Strep.haem A 1088 = assay: agar serial dilution test; assay type: cell-based, Streptococcus haemolyticus; settings: Streptococcus, A1088, 24 hours, 37° C., read-out: minimal inhibitory concentration (MIC)
Sarc. lutea ATCC 9341 = assay: agar serial dilution test; assay type: cell-based; settings: Micrococcus luteus, ATCC9341, 24 hours, 37° C., read-out: minimal inhibitory concentration (MIC)
Bruc. Suis A 2126 = assay: agar serial dilution test; assay type: cell-based; settings: Brucella suis, 24 h, read-out: minimal inhibitory concentration (MIC)
Salm.typh. R 172 = assay: agar serial dilution test; assay type: cell-based; settings: 24 h, read-out: minimal inhibitory concentration (MIC)
Staph.aureus A 355 = assay: micro serial dilution test; assay type: cell-based, Staphylococcus aureus; settings: Staphylococcus aureus, A355; micro serial dilution (in brackets), about 18 hours, 30° C. or 37° C.; penicillinase-producing strain; read-out: minimal inhibitory concentration (MIC)
Staph.aureus A 2000 [2] = assay: micro serial dilution test; assay type: cell-based, Staphylococcus aureus; settings: Staphylococcus aureus, A2000, 18 h, micro serial dilution (in brackets), about 18 hours, 30° C. or 37° C.; read-out: minimal inhibitory concentration (MIC)
Prot.mirab. A 1200 = assay: micro serial dilution test; assay type: cell-based; settings: Proteus mirabilis; micro serial dilution (in brackets), about 18 hours, 30° C. or 37° C.; read-out: minimal inhibitory concentration (MIC)
Haem.Suis A 2096 = assay: micro serial dilution test; assay type: cell-based; settings: micro serial dilution (in brackets), about 18 hours, 30° C. or 37° C.; read-out: minimal inhibitory concentration (MIC)
Proteus mirabilis A 1200 = assay: protection test; assay type: in vivo; settings: s.c.
[3] = blood and urine contents after intramuscular administration in rabbits; assay type: in vivo, rabbits "Nieuw Zeelander"; settings: rabbit, im, intramuscular 50 mg/kg
Description: (d) the blood and urine contents of the above-indicated compound G and of monosodium 7-[(3-carboxymethyl-1,2,4-oxadiazol-5-yl)acetamido]-3-acetoxymethyl-3-cephem-4-carboxylate (as prepared in example 35) were determined after intramuscular administration of these compounds in an aqueous solution in rabbits, as listed below:
test animals: rabbits "Nieuw Zeelander"
Each testgroup consisted of 3 rabbits.
Vehiculum: Physiol. saline solution
Bloodsamples were taken after 1/4--1/2--1--2--4 hours Urinesamples were taken after 1--3--6--24--27 hours (in practice only the secreted amounts after 6 and 24 hours were used).
Testorganisms: Bacillus subtilis ATCC 6633 and Bacillus callidolactis E 16.
The contents of the compounds in the samples were determined microbiologically.
(Only microbiologically detected concentrations, i.e. anti-bacterially active concentrations only have been indicated and determined in relation to the original administered compound).

Molecule `Cc1noc(CC(=O)N[C@@H]2C(=O)N3C(C(=O)O)=C(CSc4nnnn4C)CS[C@H]23)n1` [Compound G, sodium-7[(3-methyl-1,2,4-oxadiazol-5-yl)-acetamido] 3 [1-methyl-tetrazol-5-yl-mercaptomethyl] 3-cephem-4-carboxylate] has an MIC (Bac.Subt.ATCC 6633) of 0.25 µg/mL, an MIC (Staph.aureus A 321) of 0.25 µg/mL and an MIC (Staph.aureus A 2000 [1]) of 0.75 µg/mL. For the same molecule, the MIC (Staph.aureus A 2001) was 0.5 µg/mL, the MIC (Past.multo. A 723) was 1 µg/mL and the MIC (Salm.dubl. P 43) was 1.5 µg/mL. For the same molecule, the MIC (Pseud.aerug. H 10) was 100 µg/mL, the MIC (Pseud.aerug. 2396) was 100 µg/mL and the MIC (Prot.rettg. A 821) was 0.25 µg/mL. The MIC (Prot.mirab. H 3) was 25 µg/mL, the MIC (Prot.mirab. L 93) was 3 µg/mL and the MIC (Prot.morg. 2241) was 100 µg/mL. For the same molecule, the MIC (Strep.haem A 1088) was 0.25 µg/mL, the MIC (Sarc. lutea ATCC 9341) was 0.5 µg/mL and the MIC (Bruc. Suis A 2126) was 1 µg/mL. For the same molecule, the MIC (Salm.typh. R 172) was 1.5 µg/mL, the MIC (Staph.aureus A 355) was 0.9 µg/mL and the MIC (Staph.aureus A 2000 [2]) was 0.6 µg/mL. The MIC (Prot.mirab. A 1200) was 15 µg/mL, the MIC (Haem.Suis A 2096) was 0.23 µg/mL and the ED50 (Proteus mirabilis A 1200; Proteus mirabilis, A1200, sc, protection test, read-out: ED50) was 8.7 mg/kg. For the same molecule, the Potency ratio (Proteus mirabilis A 1200; reference Cefalotin) was 1,4, the concentration at 0.5 h ([3]; serum, after 1/2 hr, read-out: Serumlevel) was 137000 ng/mL and the concentration at 0.25 h ([3]; serum, after 1/4 hr, read-out: Serumlevel) was 157000 ng/mL. For the same molecule, the concentration at 1 h ([3]; serum, after 1 hr, read-out: Serumlevel) was 49000 ng/mL, the concentration at 2 h ([3]; serum, after 2 hr, read-out: Serumlevel) was 25000 ng/mL and the concentration at 4 h ([3]; serum, after 4 hr, read-out: Serumlevel) was 6700 ng/mL. For the same molecule, the dose excreted at 6 h ([3]; urine, after 6 hr, read-out: Secretion of compound in urine in % of the administered dose) was 51.3% and the dose excreted at 24 h ([3]; urine, after 24 hr, read-out: Secretion of compound in urine in % of the administered dose) was 55.5%.
